Data from paper PMC5374206, “Anti-bacterial and Anti-biofilm Evaluation of Thiazolopyrimidinone Derivatives Targeting the Histidine Kinase YycG Protein of Staphylococcus epidermidis” (Frontiers in Microbiology, 2017).
Values after ≈ are worked out from the molar mass of the structure shown. “Also recorded” adds a separate entry of the source.

Experiments:
[1] = target: T1, YycG′ protein (Staphylococcus epidermidis, UniProt Q5HK19); assay: Inhibition of YycG′ autophosphorylation (Kinase-Glo Luminescent Kinase Assay); format: biochemical; conditions: 4 μM ATP; for inhibition of the enzymatic activity of YycG′ protein: 100 μM derivative, 2 μg YycG′ protein; for IC50: Kinase-Glo, 2 μg YycG′, read-out: IC50 (inhibition of autophosphorylation of recombinant YycG′)
T1 construct: made in house; host or cells: E. coli BL21(DE3)
T1 sequence (Q5HK19 384-602 limits assumed): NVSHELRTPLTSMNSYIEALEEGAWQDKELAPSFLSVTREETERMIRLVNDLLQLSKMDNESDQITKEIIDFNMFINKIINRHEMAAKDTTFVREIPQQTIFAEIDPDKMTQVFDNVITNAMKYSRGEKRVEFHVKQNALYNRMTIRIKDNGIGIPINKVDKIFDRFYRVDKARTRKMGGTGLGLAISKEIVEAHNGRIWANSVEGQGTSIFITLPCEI
Protocol: The construction of the recombinant plasmid pET28a-YycG′ (containing the HATPase_c and HisKA domains of YycG) has been previously described (Liu et al., [2014]). After being used to transform E. coli strain BL21(DE3), this recombinant plasmid was induced to express YycG′ protein by 0.4 mM isopropyl-1-thio-β-D-galactopyranoside at 21°C for 12 h. Then, the bacterial cells were disrupted by sonication and centrifuged, the supernatant was purified by Ni–NTA agarose (Qiagen, Los Angeles, CA, USA). The inhibitory activities of the compound 5 derivatives on the ATPase activity of the YycG′ protein were measured using the Kinase-Glo™ Luminescent Kinase Assay (Promega, Madison, WI, USA). Briefly, 2 μg purified YycG′ protein was pre-incubated with a series of dilutions of the derivatives in reaction buffer [40 mM Tris (pH 7.5), 20 mM MgCl2 and 0.1 mg/ml BSA] at room temperature for 30 min, 4 μM ATP was added and incubated for 30 min at room temperature, then Kinase-Glo™ Reagent was added to detect the remaining amount of ATP, as reflected by luminescence intensity (RLU). In parallel, YycG′ protein with no addition of the derivatives was used as the control and ATP only was used as a blank. The rate of inhibition of protein phosphorylation (Rp) by the derivatives was calculated by the following equation: Rp = RLU(YycG^′+derivative+ATP+Kinase−Glo™)−RLU(YycG^′+ATP+Kinase−Glo™)/RLU(ATP+Kinase−Glo™)−RLU(YycG^′+ATP+Kinase−Glo™) × 100 IC50 (the concentration resulting in 50% inhibition of YycG′ protein autophosphorylation) was obtained by using Origin v7.0 software (OriginLab, Northampton, USA).

[2] = tested on: S. epidermidis ATCC 35984 biofilm formation; assay: Flow-based biofilm inhibition assay (BioFlux); format: cell-based, Staphylococcus epidermidis; conditions: 2 × MIC; shear 0.15 dyn/cm^2; 16 h; result in words
Protocol: The microfluidic channels of BioFlux 48-well plates (Fluxion Biosciences, South San Francisco, CA, USA) were primed with pre-warmed (37°C) TSB medium from the outlet well at a shear setting of 2 dyn/cm^2 for 10 min. Overnight bacterial culture of S. epidermidis ATCC 35984 was subcultured to mid-log phase and then diluted 1:200 in MHB medium, bacteria were seeded from the outlet well into the channel and viewing window at a shear setting of 2 dyn/cm^2 for 3 s. […] Growth of the biofilms was monitored for up to 16 h. Images of different stages were automatically acquired at 10 min intervals with bright-field illumination.

[3] = tested on: E. coli ATCC 25922; assay: MIC tube-dilution assay; format: cell-based, Escherichia coli; conditions: E. coli ATCC29522 (head), highest concentration used 200 μM
Protocol: (§1) The MIC assays of the derivatives of compound 5 against S. epidermidis, S. aureus, MRSA and E. coli were performed by using the methods described previously by Wiegand et al. ([2008]). In brief, two-fold serial dilutions of the derivatives were prepared in tubes containing 4 mL MHB medium, yielding final concentrations from 200 to 0.78 μM. Bacterial cultures were grown overnight and adjusted so that the bacterial suspension turbidity was equivalent to a 0.5 McFarland standard (~1 × 10^8 CFU/mL) and further diluted to 1:200 into MHB medium. The contents in the tubes were mixed thoroughly and incubated at 37°C with shaking at 220 rpm for 16–20 h. The MIC endpoint was defined as the lowest concentration at which there was no visible growth in the tubes. The MBC values were assessed by plating 100 μL samples from each negative (no visible bacterial growth) culture tube from the MIC assays onto blank MHB agar plates. After incubation at 37°C for 24 h, the bacterial colonies on the plates were counted. The MBC was the concentration at which a 99.9% reduction of the original inoculum was observed (Pridmore et al., [2011]). In this assay, all the experiments were performed three times.

[4] = tested on: S. epidermidis ATCC 35984; assay: MIC and MBC tube-dilution assay; format: cell-based; conditions: Staphylococcus epidermidis; for MBC: ATCC35984, 99.9% reduction of inoculum; for MIC: ATCC35984, MHB, 16–20 h
Protocol: as §1

[5] = tested on: S. epidermidis ATCC 35984; assay: Time-kill assay against fast-growing S. epidermidis; format: cell-based, Staphylococcus epidermidis; conditions: 4 × MIC; within/after 1 h; inoculum ~1 × 10^7 CFU/mL; MHB
Protocol: Suspensions of S. epidermidis (1 × 10^7 CFU/mL) were prepared and separately treated with the derivatives of compound 5 or vancomycin at concentrations of 4 × MIC in fresh MHB. Time-kill experiments were performed at 37°C with shaking at 220 rpm under aerobic conditions. Aliquots (1 mL) were removed from the culture medium at different time points (0, 1, 3, 5, 8, and 24 h), serially diluted and 100 μL of each of the dilutions plated out onto tryptic soy agar. After incubating at 37°C for 24 h, emergent bacterial colonies were counted, and the activity of the derivatives against fast-growing S. epidermidis cells was determined by plotting log10 colony counts (CFU/mL) against time. Bactericidal activity was defined as a 3-log10 decrease in CFU/mL. This assay was performed in triplicate and similar results were obtained.

[6] = tested on: MRSA strain 226 young biofilms; assay: Microtiter plate assay of 6 h young biofilms of MRSA; format: cell-based, S. aureus
Protocol: The biofilm-killing effect for immature (6 h old) biofilms was determined in TSB using a semi-quantitative assay. An overnight culture was diluted 1:200 into TSB medium with 0.25% glucose, and incubated in polystyrene 96-well plates at 37°C for 6 h. Biofilms were exposed to two-fold serial dilutions of the derivatives, and the plates were incubated for another 18 h at 37°C. Following the incubation and removal of non-adherent cells with 200 μl of phosphate-buffered saline, adherent biofilms were fixed with 95% methanol and stained with 2% (w/v) crystal violet. Then, the wells were washed three times with sterile distilled water and the plates were air dried for 2 h. The optical density of each well at 570 nm was determined using a 96-well plate spectrophotometer (DTX880, Beckman Coulter, USA).

[7] = Escherichia coli, ATCC 25922 / ATCC 29522

SMILES: CCOC(=O)C1=C(c2ccccc2)N=c2sc(=Cc3ccc(-c4cccc(C(=O)O)c4)o3)c(=O)n2C1c1ccc(F)cc1 (stereo not drawn) [H5-32, 2-[5-(3-carboxy-phenyl)-furan-2-ylmethylene]-5-(4-fluoro-phenyl)-3-oxo-7-phenyl-2,3-dihydro-5H-thiazolo[3,2-a]pyrimidine-6-carboxylic acid ethyl ester]
- inhibition of the enzymatic activity of YycG′ protein [1]: 55.61%
- IC50 [1]: 83.9 µM
- biofilm formation under shearing forces [2]: significant decrease in the biofilm formation; also recorded: strongly inhibited biofilm formation
- MIC [3]: >200 µM
- MIC [3, 7]: > 200 µM
- MBC [4]: 100 µM (≈ 59.5 µg/mL)
- MIC [4]: 3.13 µM (≈ 1.86 µg/mL)
- reduction in CFU/mL [5]: 3 log
- minimal biofilm-killing concentration [6]: 200 µM

SMILES: O=C(O)c1cccc(-c2ccc(C=c3sc4n(c3=O)C(c3ccc(F)cc3)C=C(c3ccccc3)N=4)o2)c1 (stereo not drawn) [H5-33, 3-{5-[5-(4-fluoro-phenyl)-3-oxo-7-phenyl-5H-thiazolo [3,2-a]pyrimidin-2-ylidenemethyl]-furan-2-yl}-benzoic acid]
- inhibition of the enzymatic activity of YycG′ protein [1]: 77.04%
- IC50 [1]: 64.9 µM
- biofilm formation under shearing forces [2]: significant decrease in the biofilm formation; also recorded: strongly inhibited biofilm formation
- MIC [3]: >200 µM
- MIC [3, 7]: > 200 µM
- MBC [4]: 12.5 µM (≈ 6.53 µg/mL)
- MIC [4]: 3.13 µM (≈ 1.64 µg/mL)
- reduction in CFU/mL [5]: 3 log
- minimal biofilm-killing concentration [6]: 200 µM

SMILES: CCOC(=O)C1=C(c2ccccc2)N=c2sc(=Cc3ccc(-c4ccc(C(=O)O)cc4)o3)c(=O)n2C1c1ccc(Cl)cc1 (stereo not drawn) [H5-34, 2-[5-(4-carboxy-phenyl)-furan-2-ylmethylene]-5-(4-chloro-phenyl)-3-oxo-7-phenyl-2,3-dihydro-5H-thiazolo[3,2-a]pyrimidine-6-carboxylic acid ethyl ester]
- inhibition of the enzymatic activity of YycG′ protein [1]: 80.72%
- IC50 [1]: 61.9 µM
- biofilm formation under shearing forces [2]: significant decrease in the biofilm formation; also recorded: strongly inhibited biofilm formation
- MIC [3]: >200 µM
- MIC [3, 7]: > 200 µM
- MBC [4]: 25 µM (≈ 15.3 µg/mL)
- MIC [4]: 3.13 µM (≈ 1.91 µg/mL)
- reduction in CFU/mL [5]: 3 log
- minimal biofilm-killing concentration [6]: 200 µM

SMILES: CCOC(=O)C1=C(c2ccccc2)N=c2sc(=Cc3ccc(-c4ccc(C(=O)O)cc4)o3)c(=O)n2C1c1ccc(F)cc1 (stereo not drawn) [H5-35, 2-[5-(4-carboxy-phenyl)-furan-2-ylmethylene]-5-(4-fluoro-phenyl)-3-oxo-7-phenyl-2,3-dihydro-5H-thiazolo[3,2-a]pyrimidine-6-carboxylic acid ethyl ester]
- inhibition of the enzymatic activity of YycG′ protein [1]: 63.94%
- IC50 [1]: 78.2 µM
- biofilm formation under shearing forces [2]: significant decrease in the biofilm formation; also recorded: strongly inhibited biofilm formation
- MIC [3]: >200 µM
- MIC [3, 7]: > 200 µM
- MBC [4]: 12.5 µM (≈ 7.43 µg/mL)
- MIC [4]: 3.13 µM (≈ 1.86 µg/mL)
- reduction in CFU/mL [5]: 3 log
- minimal biofilm-killing concentration [6]: 200 µM
